The values below come from BindingDB's records for doi:10.1016/s0960-894x(00)00080-9 (Granada, 2000).

Bounds are passed on as bounds.

For this test, the target named is Choline kinase (Saccharomyces cerevisiae) (UniProt P20485). Put plainly: Compound was tested […] for inhibition against purified choline kinase obtained from yeast.
Choline kinase (Saccharomyces cerevisiae), sequence (P20485 whole entry, looked up): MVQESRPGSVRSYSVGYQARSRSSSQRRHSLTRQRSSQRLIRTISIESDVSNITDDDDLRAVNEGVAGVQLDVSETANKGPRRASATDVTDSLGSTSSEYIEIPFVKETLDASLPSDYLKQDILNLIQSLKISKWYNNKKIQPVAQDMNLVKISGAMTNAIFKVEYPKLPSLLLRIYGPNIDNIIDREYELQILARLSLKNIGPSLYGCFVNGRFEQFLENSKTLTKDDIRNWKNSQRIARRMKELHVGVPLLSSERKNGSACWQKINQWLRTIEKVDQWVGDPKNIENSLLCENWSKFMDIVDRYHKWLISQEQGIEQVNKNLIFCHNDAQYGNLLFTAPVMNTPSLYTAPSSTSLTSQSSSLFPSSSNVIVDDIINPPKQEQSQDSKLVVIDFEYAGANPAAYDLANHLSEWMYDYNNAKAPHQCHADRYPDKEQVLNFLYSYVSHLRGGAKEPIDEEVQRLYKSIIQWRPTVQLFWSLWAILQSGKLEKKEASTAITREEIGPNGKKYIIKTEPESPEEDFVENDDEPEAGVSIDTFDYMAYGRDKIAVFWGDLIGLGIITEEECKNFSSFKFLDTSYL

For orientation: IC50 means the midpoint of a concentration-inhibition curve. In turn, `c1cc(Cn2ccc(=[N+]3CCCCC3)cc2)ccc1CCc1ccc(Cn2ccc(=[N+]3CCCCC3)cc2)cc1` [1,2-di[4-(4-hexahydro-1-pyridinyl-1-pyridiniumylmethyl)phenyl]ethane dibromide] returned an IC50 of 9.6 µM.

Molecule `Cc1cc[n+](Cc2ccc(CCc3ccc(C[n+]4ccc(C)cc4)cc3)cc2)cc1` [1,2-di[4-(4-methyl-1-pyridiniumylmethyl)phenyl]ethane dibromide] gave an IC50 of 100 µM.

Regarding `c1cc(Cn2ccc(=[N+]3CCCC3)cc2)ccc1CCc1ccc(Cn2ccc(=[N+]3CCCC3)cc2)cc1` [1,2-di[4-(4-tetrahydro-1H-1-pyrrolyl-1-pyridiniumylmethyl)phenyl]ethane dibromide], the concentration for half-maximal inhibition (IC50) turned out to be 20 µM.

Take `c1cc(Cn2ccc(=[N+]3CCCCCC3)cc2)ccc1CCc1ccc(Cn2ccc(=[N+]3CCCCCC3)cc2)cc1` [1,2-di{4-[4-(1-azepanyl)-1-pyridiniumylmethyl]phenyl}ethane dibromide]: half-maximal inhibition (IC50) required 15 µM.

In turn, `N=c1ccn(Cc2ccc(CCc3ccc(Cn4ccc(=N)cc4)cc3)cc2)cc1` [1-{4-[4-(4-amino-1-pyridiniumylmethyl)phenethyl]benzyl}-4-pyridiniumamine dibromide] displayed an IC50 of 23 µM.

The molecule `O=C(O)c1cc[n+](Cc2ccc(CCc3ccc(C[n+]4ccc(C(=O)O)cc4)cc3)cc2)cc1` [1-{4-[4-(4-carboxy-1-pyridiniumylmethyl)phenethyl]benzyl}-4-pyridiniumcarboxylic acid dibromide] came in with a half-maximal inhibitory concentration (IC50) of 137 µM.

`N#Cc1cc[n+](Cc2ccc(CCc3ccc(C[n+]4ccc(C#N)cc4)cc3)cc2)cc1` [1-{4-[4-(4-cyano-1-pyridiniumylmethyl)phenethyl]benzyl}-4-pyridiniumcarbonitrile dibromide] gave an IC50 greater than 1000 µM.

With `OCc1cc[n+](Cc2ccc(CCc3ccc(C[n+]4ccc(CO)cc4)cc3)cc2)cc1` [1-{4-[4-(4-hydroxymethyl-1-pyridiniumylmethyl)phenethyl]benzyl}-4-pyridiniumylmethanol dibromide], 100 µM corresponded to half-maximal inhibition (IC50).

In the case of `C=CC[N+](CC=C)=c1ccn(Cc2ccc(CCc3ccc(Cn4ccc(=[N+](CC=C)CC=C)cc4)cc3)cc2)cc1` [4N,4N-diallyl-1-{4-[4-(4-diallylamino-1-pyridiniumylmethyl)phenethyl]benzyl}-4-pyridiniumamine dibromide], the IC50 was 17 µM.

`C[N+](C)=c1ccn(Cc2ccc(CCc3ccc(Cn4ccc(=[N+](C)C)cc4)cc3)cc2)cc1` [4N,4N-dimethyl-1-{4-[4-(4-dimethylamino-1-pyridiniumylmethyl)phenethyl]benzyl}-4-pyridiniumamine dibromide] showed an IC50 of 17 µM.
